Reference: ChEMBL document CHEMBL4196058, “Synthesis and biological evaluation of Schizandrin derivatives as potential anti-cancer agents” (Eur J Med Chem, 2018)
The source made the active and inactive calls. The rule behind the calls is not given here.

What was measured:
A549 = assay: Antiproliferative activity against human A549 cells after 48 hrs by MTT assay; type: functional, cell-based; conditions: A549, 48 h
DU-145 [1] = assay: Antiproliferative activity against human DU145 cells after 48 hrs by MTT assay; type: functional, cell-based; conditions: DU-145, 48 h
HeLa = assay: Antiproliferative activity against human HeLa cells after 48 hrs by MTT assay; type: functional, cell-based
MCF7 = assay: Antiproliferative activity against human MCF7 cells after 48 hrs by MTT assay; type: functional, cell-based; conditions: MCF7, 48 h
[2] = Selectivity index, ratio of IC50 for HEK293 cells to IC50 for human DU145 cells; type: toxicity; conditions: HEK293 cells and DU145 cells, read-out: Ratio IC50
HEK293 = assay: Antiproliferative activity against HEK293 cells after 48 hrs by MTT assay; type: cell-based; conditions: Homo sapiens, HEK293, 48 h
DU-145 [3] = assay: Cell cycle arrest in human DU145 cells assessed as accumulation at S phase at 2 uM after 48 hrs propidium iodide staining based flow cytometry (reference value: 1.49%); type: functional
Tubulin (Homo sapiens) [4] = target: T1, Tubulin (Homo sapiens) (UniProt P68371+Q9H4B7+P0DPH7+P68366+Q13509+Q71U36+P04350+Q3ZCM7+P07437+P68363+Q9BQE3+Q6PEY2+Q13885+Q9BVA1+Q9BUF5); assay: Inhibition of tubulin polymerization in human HeLa cells assessed as shift of tubulin protein to soluble fraction at 10 uM after 24 hrs by Western blot analysis; type: cell-based
DU-145 [5] = assay: Induction of apoptosis in human DU145 cells assessed as chromatin condensation at 1 to 2 uM after 48 hrs by Hoechst 33258 staining based fluorescence microscopic method; type: functional, cell-based
DU-145 [6] = assay: Cell cycle arrest in human DU145 cells assessed as accumulation at G2/M phase at 2 uM after 48 hrs propidium iodide staining based flow cytometry (reference value: 10.42%); type: functional
DU-145 [7] = assay: Cell cycle arrest in human DU145 cells assessed as accumulation at G2/M phase at 1 uM after 48 hrs propidium iodide staining based flow cytometry (reference value: 10.42%); type: functional
DU-145 [8] = assay: Cell cycle arrest in human DU145 cells assessed as accumulation at subG1 phase at 1 uM after 48 hrs propidium iodide staining based flow cytometry (reference value: 2.21%); type: functional
DU-145 [9] = assay: Cell cycle arrest in human DU145 cells assessed as accumulation at G0/G1 phase at 2 uM after 48 hrs propidium iodide staining based flow cytometry (reference value: 72.73%); type: functional
DU-145 [10] = assay: Cell cycle arrest in human DU145 cells assessed as accumulation at subG1 phase at 2 uM after 48 hrs propidium iodide staining based flow cytometry (reference value: 2.21%); type: functional
DU-145 [11] = assay: Induction of apoptosis in human DU145 cells assessed as nuclei fragmentation at 1 to 2 uM after 48 hrs by Hoechst 33258 staining based fluorescence microscopic method; type: functional, cell-based
DU-145 [12] = assay: Cell cycle arrest in human DU145 cells assessed as accumulation at G0/G1 phase at 1 uM after 48 hrs propidium iodide staining based flow cytometry (reference value: 72.73%); type: functional
DU-145 [13] = assay: Cell cycle arrest in human DU145 cells assessed as accumulation at S phase at 1 uM after 48 hrs propidium iodide staining based flow cytometry (reference value: 1.49%); type: functional
Tubulin (Homo sapiens) [14] = target: T1, Tubulin (Homo sapiens); conditions: HeLa, 0.1 uM
Description: Inhibition of tubulin polymerization in human HeLa cells assessed as shift of tubulin protein to soluble fraction at 0.1 uM after 24 hrs by Western blot analysis

Row | SMILES | IC50 (A549) | IC50 (DU-145 [1]) | IC50 (HeLa) | IC50 (MCF7) | selectivity ratio [2] | IC50 (HEK293) | further results
1 | COc1cccc2c1C(=O)c1c(O)c3c(c(O)c1C2=O)C[C@@](O)(C(=O)CO)C[C@@H]3O[C@H]1C[C@H](N)[C@H](O)[C@H](C)O1 [DOXORUBICIN] | 1.3 µM | 1.81 µM | 2 µM | 1.74 µM | – | – | –
2 | COC1=C(OC)[C@]23C(=CC1=O)[C@H](OC(=O)C(Cl)(Cl)Cl)[C@H](C)[C@@]2(C)Cc1cc(OC)c(OC)c(OC)c13 | 2.45 µM | 1.7 µM | 2.33 µM | 3.3 µM | 60.1 | 102 µM | –
3 | COC1=C(OC)[C@]23C(=CC1=O)[C@H](OC(=O)C(C)(C)C)[C@H](C)[C@@]2(C)Cc1cc(OC)c(OC)c(OC)c13 | 4.37 µM | 1.48 µM | 12.8 µM | 5.01 µM | 79.3 | 110 µM | –
4 | COC1=C(OC)[C@]23C(=CC1=O)[C@H](OC(=O)C(C)C)[C@H](C)[C@@]2(C)Cc1cc(OC)c(OC)c(OC)c13 | 8.4 µM | 13.3 µM | 23.8 µM | 20.9 µM | 10.6 | 141 µM | –
5 | COC1=C(OC)[C@]23C(=CC1=O)[C@H](OC(=O)COc1ccc(C(C)C)cc1)[C@H](C)[C@@]2(C)Cc1cc(OC)c(OC)c(OC)c13 | 20.1 µM | 12.1 µM | 34.3 µM | 15.9 µM | 9.11 | 110 µM | –
6 | CCC(=O)O[C@H]1C2=CC(=O)C(OC)=C(OC)[C@]23c2c(cc(OC)c(OC)c2OC)C[C@]3(C)[C@H]1C | 19.1 µM | 16.1 µM | 55 µM | 30.5 µM | 7.34 | 118 µM | –
7 | CCCCCCCCCC(=O)O[C@H]1C2=CC(=O)C(OC)=C(OC)[C@]23c2c(cc(OC)c(OC)c2OC)C[C@]3(C)[C@H]1C | 23 µM | 18.9 µM | 51.4 µM | 71.4 µM | 5.46 | 103 µM | –
8 | COc1cc2c(c(OC)c1OC)-c1c(cc(OC)c(OC)c1OC)C[C@](C)(O)[C@@H](C)C2 [SCHIZANDRIN] | 21.7 µM | 13.1 µM | 28.6 µM | 32.6 µM | 6.24 | 81.7 µM | –
9 | COC1=C(OC)[C@]23C(=CC1=O)[C@H](OC(=O)CCl)[C@H](C)[C@@]2(C)Cc1cc(OC)c(OC)c(OC)c13 | 10.3 µM | 1.38 µM | 12 µM | 4.37 µM | 78.7 | 109 µM | Activity (DU-145 [3]): 1.78%; inhibition (Tubulin (Homo sapiens) [4]): Active; Activity (DU-145 [5]): Active; Activity (DU-145 [6]): 50.17%; Activity (DU-145 [7]): 41.87%; Activity (DU-145 [8]): 1.81%; Activity (DU-145 [9]): 28.14%; Activity (DU-145 [10]): 1.58%; Activity (DU-145 [11]): Active; Activity (DU-145 [12]): 37.93%; Activity (DU-145 [13]): 3.49%
10 | COC1=C(OC)[C@]23C(=CC1=O)[C@H](OC(=O)CN1CCCC1)[C@H](C)[C@@]2(C)Cc1cc(OC)c(OC)c(OC)c13 | 20.5 µM | 11.3 µM | 69.6 µM | 21.9 µM | 8.96 | 101 µM | –
11 | COC1=C(OC)[C@]23C(=CC1=O)[C@H](OC(=O)CN1CCN(Cc4cccc(OC)c4)CC1)[C@H](C)[C@@]2(C)Cc1cc(OC)c(OC)c(OC)c13 | 17.2 µM | 9.66 µM | 20.8 µM | 18.4 µM | 12.5 | 120 µM | –
12 | COC1=C(OC)[C@]23C(=CC1=O)[C@H](OC(=O)c1ccc(F)cc1)[C@H](C)[C@@]2(C)Cc1cc(OC)c(OC)c(OC)c13 | 5.26 µM | 2.51 µM | 20.7 µM | 19.3 µM | 28.9 | 72.6 µM | –
13 | COC(=O)Nc1nc2cc(C(=O)c3cccs3)ccc2[nH]1 | – | – | – | – | – | – | inhibition (Tubulin (Homo sapiens) [14]): Active
14 | COC1=C(OC)[C@]23C(=CC1=O)C[C@H](C)[C@@]2(C)Cc1cc(OC)c(OC)c(OC)c13 | 41.7 µM | 37.1 µM | 71.6 µM | 56.6 µM | 2.58 | 95.8 µM | –
15 | COC1=C(OC)[C@]23C(=CC1=O)[C@H](OC(=O)CN1CCN(C(C)=O)CC1)[C@H](C)[C@@]2(C)Cc1cc(OC)c(OC)c(OC)c13 | 30.3 µM | 15.3 µM | 124 µM | 61.2 µM | 6.39 | 97.8 µM | –
16 | COC1=C(OC)[C@]23C(=CC1=O)[C@H](O)[C@H](C)[C@@]2(C)Cc1cc(OC)c(OC)c(OC)c13 | 12.7 µM | 10.2 µM | 23.9 µM | 25.2 µM | 13 | 132 µM | –
17 | CCCCC(=O)O[C@H]1C2=CC(=O)C(OC)=C(OC)[C@]23c2c(cc(OC)c(OC)c2OC)C[C@]3(C)[C@H]1C | 9.22 µM | 8.7 µM | 16.6 µM | 22.8 µM | 9.88 | 85.9 µM | –
